# From BindingDB's records for doi:10.7270/Q20V8B80 (The Scripps Research Institute Molecular Screening Center, 2011)
# Molecular target: T1, Caspase-7 (Homo sapiens, UniProt P55210)
# T1 sequence (P55210 whole entry): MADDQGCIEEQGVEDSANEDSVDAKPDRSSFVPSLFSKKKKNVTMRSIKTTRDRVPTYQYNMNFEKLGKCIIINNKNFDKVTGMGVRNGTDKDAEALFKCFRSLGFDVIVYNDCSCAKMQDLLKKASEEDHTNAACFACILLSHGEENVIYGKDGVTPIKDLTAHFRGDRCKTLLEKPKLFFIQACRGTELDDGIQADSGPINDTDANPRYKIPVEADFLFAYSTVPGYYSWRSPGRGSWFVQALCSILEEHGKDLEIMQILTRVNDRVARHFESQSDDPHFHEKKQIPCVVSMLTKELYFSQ
# Assay: procaspase-7 activators, dose response, dual procaspase-3/-7 activator project, biochemical, absorbance, human (AID 504330)
row,EC50 [µM],SMILES
1,27.8,Cc1[nH]nc2c1C(c1c[nH]c3ccccc13)C(C#N)C(=N)O2 (configuration not stated) [MLS001030009]
2,> 85.3,CCOc1ccc(NC=C2C(=O)CC(c3ccco3)CC2=O)cc1 (configuration not stated) [SMR000268302]
3,> 85.3,C=CC=Nc1c(Cl)c(O)n(-c2cccc(Cl)c2Cl)c1O [MLS000533809]

# Second part, the molecule before the results:
row,SMILES,EC50 [µM]
1,COc1ccccc1-n1c(O)c2n(-c3ccccc3)[nH]c(C(=O)c3ccccc3)c-2c1=O,> 85.3
2,"COC(=O)c1[nH]n(-c2ccc(Cl)cc2)c2c(O)n(-c3ccccc3OC)c(=O)c1-2 [1-(4-Chloro-phenyl)-5-(2-methoxy-phenyl)-4,6-dioxo-1,3a,4,5,6,6a-hexahydro-pyrrolo[3,4-c]pyrazole-3-carboxylic acid methyl ester]",> 85.3
3,"O=C(c1ccccc1)c1[nH]n(-c2ccccc2)c2c(O)n(-c3ccccc3)c(=O)c1-2 [3-benzoyl-1,5-diphenyl-3a,6a-dihydropyrrolo[3,4-c]pyrazole-4,6-dione]",> 85.3
4,"CCOC(=O)C(C#N)C=Nc1cc(OC)ccc1OC (configuration not stated) [(E)-2-Cyano-3-(2,5-dimethoxy-phenylamino)-acrylic acid ethyl ester]",> 85.3
